Reference: ChEMBL document CHEMBL5143626, “Marine Natural Products as Leads against SARS-CoV-2 Infection” (J Nat Prod, 2022)
Activity calls are given as the source filed them. No cut-off for these calls is given here.

Legend:
SARS-CoV-2 [1] = assay: Antiviral activity against SARS-CoV-2 isolate USA-WA1/2020 infected in Calu-3 cells at 1 uM preincubated for 24 hrs followed by viral infection and measured after 48 hrs by Hoechst 33342 staining based microscopic method; assay type: functional, organism-based; details: Severe acute respiratory syndrome coronavirus 2, time 72.0 hrs
SARS-CoV-2 [2] = assay: Antiviral activity against SARS-CoV-2 isolate USA-WA1/2020 infected in Calu-3 cells at 10 uM preincubated for 24 hrs followed by viral infection and measured after 48 hrs by Hoechst 33342 staining based microscopic method; assay type: functional, organism-based; details: Severe acute respiratory syndrome coronavirus 2, time 72.0 hrs
SARS-CoV-2 [3] = assay: Antiviral activity against SARS-CoV-2 isolate USA-WA1/2020 infected in Calu-3 cells preincubated for 24 hrs followed by viral infection and measured after 48 hrs by Hoechst 33342 staining based microscopic method; assay type: functional, organism-based; details: Severe acute respiratory syndrome coronavirus 2, USA-WA1/2020, Calu-3
Calu-3 = assay: (§1) Cytotoxicity against human Calu-3 cells assessed as reduction in cell viability; assay type: toxicity, cell-based; details: calu-3
SARS-CoV-2 [4] = assay: Antiviral activity against SARS-CoV-2 isolate USA-WA1/2020 infected in Calu-3 cells assessed at 0.5 uM preincubated for 24 hrs followed by viral infection and measured after 48 hrs by Hoechst 33342 staining based microscopic method relative to control; assay type: functional, organism-based; details: Severe acute respiratory syndrome coronavirus 2, time 72.0 hrs
SARS-CoV-2 [5] = assay: Antiviral activity against SARS-CoV-2 isolate USA-WA1/2020 infected in Calu-3 cells at 2.8 uM preincubated for 24 hrs followed by viral infection and measured after 48 hrs by Hoechst 33342 staining based microscopic method; assay type: functional, organism-based; details: Severe acute respiratory syndrome coronavirus 2, time 72.0 hrs
[6] = as §1; assay type: toxicity, cell-based; details: Calu-3 cells
SARS-CoV-2 [7] = assay: Antiviral activity against SARS-CoV-2 isolate USA-WA1/2020 infected in human Primary bronchial epithelial cells assessed as reduction in viral RNA replication at 2.8 uM preincubated for 1 hr followed by viral infection and measured after 48 hrs by qRT-PCR method relative to control; assay type: functional, Severe acute respiratory syndrome coronavirus 2, Primary bronchial epithelial cell; parameters: scale not given: the % may be the effect or the level left; details: time 49 hrs

Structure (SMILES)	Activity (SARS-CoV-2 [1])	Activity (SARS-CoV-2 [2])	EC50 (SARS-CoV-2 [3]) [µM]	CC50 (Calu-3) [µM]	Activity (SARS-CoV-2 [4])	Activity (SARS-CoV-2 [5])	CC50 [6] [µM]	Activity (SARS-CoV-2 [7]) [%]
CC(C)=CCC[C@@H](C)[C@H]1CC[C@@]2(C(=O)O)C3=C(CC[C@]12C)[C@@]1(C)CC[C@H](O[C@@H]2OC[C@H](O)[C@H](O[C@@H]4OC[C@H](O)[C@H](O[C@@H]5O[C@H](CO)[C@H](O)[C@H](O)[C@H]5O)[C@H]4O)[C@H]2O[C@@H]2O[C@H](CO)[C@H](O)[C@H](O)[C@H]2O)C(C)(C)C1CC3 (stereo partly specified)	Active							
CC1=C2Cc3cc(ccc3O)C(=O)O[C@H](C(C)(C)Br)CC[C@](C)(O)[C@H](Br)CC[C@]2(C)[C@@H](Br)CC1	Active	Active	6.9	> 10				
CCC(CC)COC(=O)[C@H](C)N[P@](=O)(OC[C@H]1O[C@@](C#N)(c2ccc3c(N)ncnn23)[C@H](O)[C@@H]1O)Oc1ccccc1 [REMDESIVIR]			0.3	> 5				
C[C@H]1CC[C@H]2C(C)(C)CCC[C@]23Oc2ccc(O)cc2C[C@]13C [AUREOL]	Active	Active	4	> 10				
CC(=O)C[C@]1(O)c2ccccc2-[n+]2ccc3c([nH]c4ccccc43)c21.O=C([O-])C(F)(F)F			1.1		Active	Active	5	>90
